Measured values as given in patent US11697648B2, “Fused pyrimidine pyridinone compounds as JAK inhibitors” (THERAVANCE BIOPHARMA R&D IP, LLC, priority 2019, dated 2023).

Tests used:
[1] = biological target: JAK1 (Homo sapiens (Human), UniProt P23458); test: Biochemical JAK1 kinase assay (LanthaScreen)
Method in brief: (§1)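 GST-JAK + GFP-STAT1 peptide, HEPES pH 7.5/MgCl2/EGTA/Brij-35 buffer; cpd preincubation 1 h RT; ATP start, 1 h RT; stop with 10 mM EDTA + 2 nM Tb-anti-pSTAT1; TR-FRET 520/495. 4-parameter IC50 → pKi (Cheng-Prusoff).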

[2] = biological target: JAK2 (Homo sapiens (Human), UniProt O60674); test: Biochemical JAK2 kinase assay (LanthaScreen)
JAK2, sequence (O60674 whole entry): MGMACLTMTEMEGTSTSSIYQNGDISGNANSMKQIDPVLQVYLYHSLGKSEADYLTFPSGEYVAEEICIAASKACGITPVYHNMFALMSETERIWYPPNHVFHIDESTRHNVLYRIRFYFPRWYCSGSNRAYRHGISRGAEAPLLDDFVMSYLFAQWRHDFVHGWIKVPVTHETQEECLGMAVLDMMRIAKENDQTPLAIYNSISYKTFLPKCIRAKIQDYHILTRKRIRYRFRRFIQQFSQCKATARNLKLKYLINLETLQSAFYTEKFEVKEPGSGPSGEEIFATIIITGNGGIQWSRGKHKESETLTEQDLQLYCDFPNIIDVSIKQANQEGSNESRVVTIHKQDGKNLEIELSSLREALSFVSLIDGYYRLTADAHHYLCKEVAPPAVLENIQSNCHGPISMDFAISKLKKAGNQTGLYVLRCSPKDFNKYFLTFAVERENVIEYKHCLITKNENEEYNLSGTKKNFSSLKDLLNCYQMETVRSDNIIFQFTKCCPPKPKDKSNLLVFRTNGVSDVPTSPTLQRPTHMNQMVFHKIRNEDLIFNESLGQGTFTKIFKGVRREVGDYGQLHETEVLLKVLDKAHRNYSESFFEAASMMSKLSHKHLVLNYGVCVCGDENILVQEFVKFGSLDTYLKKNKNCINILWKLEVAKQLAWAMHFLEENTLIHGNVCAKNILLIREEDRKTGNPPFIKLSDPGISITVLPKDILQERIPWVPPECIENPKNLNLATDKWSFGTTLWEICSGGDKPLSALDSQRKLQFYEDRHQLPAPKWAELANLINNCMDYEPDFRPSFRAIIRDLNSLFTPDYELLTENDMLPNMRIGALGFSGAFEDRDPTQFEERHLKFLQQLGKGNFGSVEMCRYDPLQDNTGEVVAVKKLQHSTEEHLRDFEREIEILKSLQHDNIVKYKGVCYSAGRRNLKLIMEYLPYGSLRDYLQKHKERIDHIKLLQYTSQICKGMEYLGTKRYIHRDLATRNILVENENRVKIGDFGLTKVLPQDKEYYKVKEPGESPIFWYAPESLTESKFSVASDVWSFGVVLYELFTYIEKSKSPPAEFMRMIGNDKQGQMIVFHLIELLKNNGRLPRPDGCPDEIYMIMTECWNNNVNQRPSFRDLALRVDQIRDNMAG
Method in brief: as §1

[3] = biological target: JAK3 (Homo sapiens (Human), UniProt P52333); test: Biochemical JAK3 kinase assay (LanthaScreen); settings: for JAK3 (pKi)-JAK1 (pKi): selectivity JAK3 over JAK1, difference of pKi
JAK3, sequence (P52333 whole entry): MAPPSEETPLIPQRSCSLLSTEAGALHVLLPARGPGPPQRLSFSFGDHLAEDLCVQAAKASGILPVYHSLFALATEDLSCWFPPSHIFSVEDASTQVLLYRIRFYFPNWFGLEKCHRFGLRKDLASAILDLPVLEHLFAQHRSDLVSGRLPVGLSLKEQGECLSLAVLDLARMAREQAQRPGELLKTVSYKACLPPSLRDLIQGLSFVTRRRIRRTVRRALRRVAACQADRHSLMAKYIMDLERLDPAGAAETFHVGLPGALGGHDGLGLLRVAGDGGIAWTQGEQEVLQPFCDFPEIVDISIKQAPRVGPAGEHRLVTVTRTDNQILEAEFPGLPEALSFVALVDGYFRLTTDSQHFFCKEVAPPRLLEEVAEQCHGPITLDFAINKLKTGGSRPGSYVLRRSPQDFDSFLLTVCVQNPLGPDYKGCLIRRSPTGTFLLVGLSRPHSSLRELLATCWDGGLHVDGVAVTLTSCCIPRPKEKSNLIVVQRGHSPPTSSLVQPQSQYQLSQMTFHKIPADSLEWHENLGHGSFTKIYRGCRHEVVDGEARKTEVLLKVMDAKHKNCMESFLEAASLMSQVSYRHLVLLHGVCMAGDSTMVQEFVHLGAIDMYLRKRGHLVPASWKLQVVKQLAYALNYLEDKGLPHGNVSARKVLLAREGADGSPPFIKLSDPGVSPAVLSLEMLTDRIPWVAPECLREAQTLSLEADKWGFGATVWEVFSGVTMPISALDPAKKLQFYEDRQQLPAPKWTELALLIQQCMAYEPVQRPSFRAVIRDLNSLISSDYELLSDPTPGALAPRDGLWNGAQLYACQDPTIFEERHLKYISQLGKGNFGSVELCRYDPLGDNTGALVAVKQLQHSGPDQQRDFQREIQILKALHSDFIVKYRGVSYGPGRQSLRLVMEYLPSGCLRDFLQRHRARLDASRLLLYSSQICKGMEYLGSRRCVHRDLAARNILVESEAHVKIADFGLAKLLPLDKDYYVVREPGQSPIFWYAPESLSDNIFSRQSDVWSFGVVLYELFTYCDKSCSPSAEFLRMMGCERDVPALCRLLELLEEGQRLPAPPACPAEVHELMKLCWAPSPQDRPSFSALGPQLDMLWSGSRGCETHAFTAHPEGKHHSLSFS
Method in brief: as §1

[4] = biological target: Tyk2 (Homo sapiens (Human), UniProt P29597); test: Biochemical Tyk2 kinase assay (LanthaScreen)
Tyk2, sequence (P29597 whole entry): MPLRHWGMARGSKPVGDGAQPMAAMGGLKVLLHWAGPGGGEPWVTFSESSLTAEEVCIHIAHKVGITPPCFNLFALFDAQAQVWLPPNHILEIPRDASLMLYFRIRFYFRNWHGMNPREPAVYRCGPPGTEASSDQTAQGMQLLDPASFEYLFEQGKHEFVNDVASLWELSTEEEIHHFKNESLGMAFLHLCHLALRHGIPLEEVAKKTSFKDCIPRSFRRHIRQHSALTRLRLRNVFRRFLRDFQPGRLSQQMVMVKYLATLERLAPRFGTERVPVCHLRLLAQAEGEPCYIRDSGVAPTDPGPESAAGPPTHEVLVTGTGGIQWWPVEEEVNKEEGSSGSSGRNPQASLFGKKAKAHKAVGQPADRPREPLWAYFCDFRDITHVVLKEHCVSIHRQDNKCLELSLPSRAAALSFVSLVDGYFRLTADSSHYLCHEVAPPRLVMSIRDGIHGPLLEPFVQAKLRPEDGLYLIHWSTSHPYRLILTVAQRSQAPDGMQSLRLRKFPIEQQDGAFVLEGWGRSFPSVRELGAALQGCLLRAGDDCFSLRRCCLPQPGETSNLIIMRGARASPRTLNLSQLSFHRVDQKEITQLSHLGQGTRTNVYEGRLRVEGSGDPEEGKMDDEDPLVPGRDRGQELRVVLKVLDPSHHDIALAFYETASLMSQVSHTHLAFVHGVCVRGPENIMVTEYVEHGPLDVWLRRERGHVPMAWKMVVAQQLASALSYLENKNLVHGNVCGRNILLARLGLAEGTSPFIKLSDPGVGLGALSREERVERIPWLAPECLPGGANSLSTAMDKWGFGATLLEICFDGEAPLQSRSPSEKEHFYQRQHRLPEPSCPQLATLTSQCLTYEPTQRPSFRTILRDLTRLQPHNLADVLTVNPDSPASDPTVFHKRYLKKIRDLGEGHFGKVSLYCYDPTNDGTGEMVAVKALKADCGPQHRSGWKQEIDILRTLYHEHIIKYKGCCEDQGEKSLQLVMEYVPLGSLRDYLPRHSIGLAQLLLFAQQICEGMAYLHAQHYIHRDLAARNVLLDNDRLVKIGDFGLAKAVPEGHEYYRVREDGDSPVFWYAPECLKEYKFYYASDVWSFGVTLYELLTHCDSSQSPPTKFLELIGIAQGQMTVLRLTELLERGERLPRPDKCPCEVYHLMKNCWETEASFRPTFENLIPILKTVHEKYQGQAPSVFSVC
Method in brief: as §1

[5] = system: IL-2 stimulated STAT5 phosphorylation in Tall-1 human T cell line (JAK3); test: Cellular JAK3 potency assay: inhibition of IL-2 stimulated pSTAT5 in Tall-1 T cells; type: cell-based; settings: IL-2 stimulated pSTAT5, Tall-1 T cells
Method in brief: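 AlphaLISA SureFire Ultra measures STAT5 Tyr694/699 phosphorylation in lysed Tall-1 human T cells. Cells were exposed to compound for 1 h at 37 °C before a 30 min IL-2 challenge (300 ng/ml final). Values are pIC50 means with standard deviation from signal-versus-concentration curves.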

JAK1, sequence (P23458 whole entry): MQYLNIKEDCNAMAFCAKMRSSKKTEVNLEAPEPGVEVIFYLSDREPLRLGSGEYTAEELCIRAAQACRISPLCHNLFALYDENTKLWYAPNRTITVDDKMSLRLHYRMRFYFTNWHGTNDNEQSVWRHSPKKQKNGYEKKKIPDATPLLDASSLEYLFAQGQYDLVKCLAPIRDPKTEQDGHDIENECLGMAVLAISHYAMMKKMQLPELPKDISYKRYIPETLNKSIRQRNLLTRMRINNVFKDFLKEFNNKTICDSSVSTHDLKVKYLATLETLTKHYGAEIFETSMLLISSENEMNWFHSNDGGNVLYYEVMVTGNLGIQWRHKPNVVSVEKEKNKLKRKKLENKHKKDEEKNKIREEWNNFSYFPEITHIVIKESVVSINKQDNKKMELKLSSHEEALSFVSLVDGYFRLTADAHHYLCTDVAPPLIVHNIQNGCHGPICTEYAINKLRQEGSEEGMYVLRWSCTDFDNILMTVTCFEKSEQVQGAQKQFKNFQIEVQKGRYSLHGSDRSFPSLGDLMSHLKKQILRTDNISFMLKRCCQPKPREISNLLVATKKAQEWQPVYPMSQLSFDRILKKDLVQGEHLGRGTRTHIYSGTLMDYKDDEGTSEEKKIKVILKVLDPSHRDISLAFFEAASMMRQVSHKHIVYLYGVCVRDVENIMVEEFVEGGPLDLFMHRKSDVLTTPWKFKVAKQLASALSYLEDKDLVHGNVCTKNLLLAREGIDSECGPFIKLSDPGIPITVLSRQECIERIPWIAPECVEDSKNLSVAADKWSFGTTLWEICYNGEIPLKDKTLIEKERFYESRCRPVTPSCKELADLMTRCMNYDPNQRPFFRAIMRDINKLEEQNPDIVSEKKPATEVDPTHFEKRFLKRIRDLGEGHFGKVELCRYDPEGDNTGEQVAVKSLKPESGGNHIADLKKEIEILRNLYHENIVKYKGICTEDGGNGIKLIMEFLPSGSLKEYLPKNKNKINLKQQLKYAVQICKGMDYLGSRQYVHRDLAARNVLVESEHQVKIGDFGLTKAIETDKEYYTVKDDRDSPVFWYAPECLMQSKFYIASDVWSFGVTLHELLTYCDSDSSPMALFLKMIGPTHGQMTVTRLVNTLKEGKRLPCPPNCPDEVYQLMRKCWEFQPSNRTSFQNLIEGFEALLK

SMILES | JAK 1 (pKi) [1] | JAK 2 (pKi) [2] | JAK 3 (pKi) [3] | JAK3 (pKi)-JAK1 (pKi) [3] | Tyk 2 (pKi) [4] | Tall-1 (pIC50) [5]
C=CC(=O)N1CCN(CCn2c(=O)ccc3cnc(Nc4cnn(-c5ccccc5)c4)nc32)[C@@H](CC)C1 [Example 195] | E (E represents a pKi value of 7 or below (Ki of 100 nM or above)) | E (E represents a pKi value of 7 or below (Ki of 100 nM or above)) | B (B represents pKi value between 9 and 10 (Ki between 1 nM and 0.1 nM)) | A (A represents a value of 3 or above) | E (E represents a pKi value of 7 or below (Ki of 100 nM or above)) | B (B represents a pC50 value between 6.7 (included) and 7.5 (IC50 between 200 nM and 32 nM))
C=CC(=O)N1CCN(C(C)(C)Cn2c(=O)ccc3cnc(Nc4ccc(N5CCN(C(C)=O)CC5)cc4)nc32)CC1 [Example 200] | E (E represents a pKi value of 7 or below (Ki of 100 nM or above)) | E (E represents a pKi value of 7 or below (Ki of 100 nM or above)) | C (C represents a pKi value between 8 and 9 (Ki between 10 nM and 1 nM)) | B (B represents a value of 2.5 to 3) | E (E represents a pKi value of 7 or below (Ki of 100 nM or above)) | C (C represents a pIC50 value between 6 and 6.7 (IC50 between 1 μM and 200 nM))
C=CC(=O)N1CCN(CCn2c(=O)ccc3cnc(Nc4ccc(N5CCN(CC)CC5)cc4)nc32)CC1 [Example 204] | E (E represents a pKi value of 7 or below (Ki of 100 nM or above)) | E (E represents a pKi value of 7 or below (Ki of 100 nM or above)) | A (A represents a pKi value≥10 (Ki≤0.1 nM)) | A (A represents a value of 3 or above) | E (E represents a pKi value of 7 or below (Ki of 100 nM or above)) | A (A represents a pIC50 value≥7.5 (IC50≤32 nM))
C=CC(=O)N1CCN(CCn2c(=O)ccc3cnc(Nc4ccc(N5CCN(S(=O)(=O)N(C)C)CC5)cc4)nc32)CC1 [Example 211] | E (E represents a pKi value of 7 or below (Ki of 100 nM or above)) | E (E represents a pKi value of 7 or below (Ki of 100 nM or above)) | A (A represents a pKi value≥10 (Ki≤0.1 nM)) | A (A represents a value of 3 or above) | E (E represents a pKi value of 7 or below (Ki of 100 nM or above)) | B (B represents a pC50 value between 6.7 (included) and 7.5 (IC50 between 200 nM and 32 nM))
C=CC(=O)N1CCN(CCn2c(=O)ccc3cnc(Nc4ccc(N5CCN(C(=O)CC(C)C)CC5)cc4)nc32)CC1 [Example 212] | E (E represents a pKi value of 7 or below (Ki of 100 nM or above)) | E (E represents a pKi value of 7 or below (Ki of 100 nM or above)) | A (A represents a pKi value≥10 (Ki≤0.1 nM)) | A (A represents a value of 3 or above) | E (E represents a pKi value of 7 or below (Ki of 100 nM or above)) | B (B represents a pC50 value between 6.7 (included) and 7.5 (IC50 between 200 nM and 32 nM))
C=CC(=O)N1CCN(CCn2c(=O)ccc3cnc(Nc4ccc(N5CCN(C(=O)C(C)C)CC5)cc4)nc32)CC1 [Example 213] | E (E represents a pKi value of 7 or below (Ki of 100 nM or above)) | E (E represents a pKi value of 7 or below (Ki of 100 nM or above)) | A (A represents a pKi value≥10 (Ki≤0.1 nM)) | A (A represents a value of 3 or above) | E (E represents a pKi value of 7 or below (Ki of 100 nM or above)) | B (B represents a pC50 value between 6.7 (included) and 7.5 (IC50 between 200 nM and 32 nM))
C=CC(=O)N1CCN(CCn2c(=O)ccc3cnc(Nc4ccc(N5CCN(C(=S)N(C)C)CC5)cc4)nc32)CC1 [Example 214] | E (E represents a pKi value of 7 or below (Ki of 100 nM or above)) | E (E represents a pKi value of 7 or below (Ki of 100 nM or above)) | B (B represents pKi value between 9 and 10 (Ki between 1 nM and 0.1 nM)) | A (A represents a value of 3 or above) | E (E represents a pKi value of 7 or below (Ki of 100 nM or above)) | B (B represents a pC50 value between 6.7 (included) and 7.5 (IC50 between 200 nM and 32 nM))
C=CC(=O)N1CC(CCn2c(=O)ccc3cnc(Nc4cccc(C(C)N5CCN(C(=O)N(C)C)CC5)c4)nc32)C1 (stereo not drawn) [Example 215] | E (E represents a pKi value of 7 or below (Ki of 100 nM or above)) | E (E represents a pKi value of 7 or below (Ki of 100 nM or above)) | B (B represents pKi value between 9 and 10 (Ki between 1 nM and 0.1 nM)) | A (A represents a value of 3 or above) | E (E represents a pKi value of 7 or below (Ki of 100 nM or above)) | B (B represents a pC50 value between 6.7 (included) and 7.5 (IC50 between 200 nM and 32 nM))
C=CC(=O)N1CC(CCn2c(=O)ccc3cnc(Nc4cccc(C(C)N5CCN(C(C)=O)CC5)c4)nc32)C1 (stereo not drawn) [Example 216] | E (E represents a pKi value of 7 or below (Ki of 100 nM or above)) | E (E represents a pKi value of 7 or below (Ki of 100 nM or above)) | B (B represents pKi value between 9 and 10 (Ki between 1 nM and 0.1 nM)) | A (A represents a value of 3 or above) | E (E represents a pKi value of 7 or below (Ki of 100 nM or above)) | C (C represents a pIC50 value between 6 and 6.7 (IC50 between 1 μM and 200 nM))
C=CC(=O)N1CC(CC)(CCn2c(=O)ccc3cnc(Nc4ccc(N5CCN(C)CC5)cc4)nc32)C1 [Example 217] | E (E represents a pKi value of 7 or below (Ki of 100 nM or above)) | D (D represents a pKi value between 7 and 8 (Ki between 100 nM and 10 nM)) | B (B represents pKi value between 9 and 10 (Ki between 1 nM and 0.1 nM)) | A (A represents a value of 3 or above) | E (E represents a pKi value of 7 or below (Ki of 100 nM or above)) | A (A represents a pIC50 value≥7.5 (IC50≤32 nM))
C=CC(=O)N1CCN(CCn2c(=O)ccc3cnc(Nc4ccc(N5CCN(C(C)(C)C)CC5)cc4)nc32)CC1 [Example 219] | E (E represents a pKi value of 7 or below (Ki of 100 nM or above)) | E (E represents a pKi value of 7 or below (Ki of 100 nM or above)) | B (B represents pKi value between 9 and 10 (Ki between 1 nM and 0.1 nM)) | A (A represents a value of 3 or above) | E (E represents a pKi value of 7 or below (Ki of 100 nM or above)) | A (A represents a pIC50 value≥7.5 (IC50≤32 nM))
C=CC(=O)N1CCN(CCn2c(=O)ccc3cnc(Nc4cnn(CCOC(C)C)c4)nc32)[C@@H](CC)C1 [Example 220] | E (E represents a pKi value of 7 or below (Ki of 100 nM or above)) | E (E represents a pKi value of 7 or below (Ki of 100 nM or above)) | B (B represents pKi value between 9 and 10 (Ki between 1 nM and 0.1 nM)) | A (A represents a value of 3 or above) | E (E represents a pKi value of 7 or below (Ki of 100 nM or above)) | B (B represents a pC50 value between 6.7 (included) and 7.5 (IC50 between 200 nM and 32 nM))
C=CC(=O)N1CCN(CCn2c(=O)ccc3cnc(Nc4cnn(CCOCC)c4)nc32)[C@@H](CC)C1 [Example 221] | E (E represents a pKi value of 7 or below (Ki of 100 nM or above)) | E (E represents a pKi value of 7 or below (Ki of 100 nM or above)) | B (B represents pKi value between 9 and 10 (Ki between 1 nM and 0.1 nM)) | A (A represents a value of 3 or above) | E (E represents a pKi value of 7 or below (Ki of 100 nM or above)) | B (B represents a pC50 value between 6.7 (included) and 7.5 (IC50 between 200 nM and 32 nM))
